Measurements as given in patent US8044198B2, “Sirtuin modulating compounds” (Sirtris Pharmaceuticals, Inc., priority 2005, dated 2011).
Like-named read-outs stand apart in the source and are kept apart here.

Molecular target: T1, SIRT1 (Homo sapiens, UniProt Q96EB6)
T1 sequence (Q96EB6 1-747): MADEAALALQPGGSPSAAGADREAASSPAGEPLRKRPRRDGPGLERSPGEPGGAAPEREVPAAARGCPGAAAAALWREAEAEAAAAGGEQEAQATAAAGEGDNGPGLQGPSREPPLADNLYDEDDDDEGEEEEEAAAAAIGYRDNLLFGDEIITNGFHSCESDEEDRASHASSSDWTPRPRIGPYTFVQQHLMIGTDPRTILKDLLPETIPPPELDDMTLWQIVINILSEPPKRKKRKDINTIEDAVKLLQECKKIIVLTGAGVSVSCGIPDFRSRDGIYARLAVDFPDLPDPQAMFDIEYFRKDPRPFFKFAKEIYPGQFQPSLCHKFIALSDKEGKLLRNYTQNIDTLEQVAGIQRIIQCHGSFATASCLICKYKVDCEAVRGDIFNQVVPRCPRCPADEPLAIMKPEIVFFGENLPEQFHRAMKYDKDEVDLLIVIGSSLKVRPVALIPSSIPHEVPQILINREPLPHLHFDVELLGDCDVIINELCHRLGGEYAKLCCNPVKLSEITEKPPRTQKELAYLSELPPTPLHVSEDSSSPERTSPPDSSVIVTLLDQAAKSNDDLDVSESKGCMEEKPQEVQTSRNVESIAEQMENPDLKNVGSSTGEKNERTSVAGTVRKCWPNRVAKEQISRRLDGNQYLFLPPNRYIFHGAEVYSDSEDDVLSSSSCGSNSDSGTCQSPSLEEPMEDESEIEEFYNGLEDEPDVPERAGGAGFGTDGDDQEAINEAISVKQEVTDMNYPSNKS
Assay: SIRT1 mass spectrometry (MS) based deacetylation assay; for FOLD ACT. MS: test concentration or dose not given here
Type: biochemical

[1] = SIRT1 activation, mass spectrometry assay, read-out: ED50 MS ASSAY
[2] = fold activation of SIRT1 as determined by MS

EC50 [1] [µM] | FOLD ACT. MS (fold activation of SIRT1, mass spectrometry assay) | FOLD ACT. MS [2] | Structure (SMILES) | EC50 [µM]
5 to 50 | B (B (Fold Activation <250%)) | – | COc1cc(C(=O)Nc2ccccc2-c2cccs2)cc(OC)c1OC [336 10] | –
5 to 50 | – | B (B (Fold Activation <250%)) | O=C(Nc1cccc(-c2nc3ncccc3o2)c1)c1ccccc1 [Compound 56] | –
5 to 50 | – | – | COc1cc(C(=O)Nc2cccc(-c3nc4ncccc4o3)n2)cc(OC)c1OC [Compound 57] | –
5 to 50 | – | – | COc1ccc(S(=O)(=O)Nc2cccc(-c3nc4ncccc4o3)n2)cc1OC [Compound 60] | –
5 to 50 | – | – | COc1ccc(C(=O)Nc2cc(-c3nc4ncccc4o3)ccn2)cc1OC [Compound 63] | –
5 to 50 | – | – | CN(C)c1cccc(C(=O)Nc2cccc(-c3nc4ncccc4o3)n2)c1 [Compound 64] | –
5 to 50 | – | – | COc1cc(C(=O)Nc2cncc(-c3nc4ncccc4o3)c2)cc(OC)c1OC [Compound 66] | –
5 to 50 | – | – | COc1ccc(C(=O)Nc2cncc(-c3nc4ncccc4o3)c2)cc1OC [Compound 67] | –
5 to 50 | – | – | CN(C)c1cccc(C(=O)Nc2cncc(-c3nc4ncccc4o3)c2)c1 [Compound 68] | –
5 to 50 | – | B (B (Fold Activation <250%)) | COc1ccc(C(=O)Nc2cccc(-c3nc4ncccc4o3)n2)c(OC)c1 [Compound 69] | –
5 to 50 | – | B (B (Fold Activation <250%)) | CN(C)c1ccc(C(=O)Nc2cccc(-c3nc4ncccc4o3)n2)cc1 [Compound 70] | –
5 to 50 | – | B (B (Fold Activation <250%)) | O=C(Nc1ccc2c(c1)OCO2)Nc1cccc(-c2nc3ncccc3o2)n1 [Compound 71] | –
> 150 | – | – | COc1ccc(S(=O)(=O)Nc2cncc(-c3nc4ncccc4o3)c2)cc1OC [Compound 74] | –
5 to 50 | – | B (B (Fold Activation <250%)) | COc1cc(C(=O)Nc2cc(-c3nc4ncccc4o3)ccn2)cc(OC)c1OC [Compound 75] | –
5 to 50 | – | B (B (Fold Activation <250%)) | CN(C)c1cccc(C(=O)Nc2cc(-c3nc4ncccc4o3)ccn2)c1 [Compound 76] | –
5 to 50 | – | B (B (Fold Activation <250%)) | COc1ccc(C(=O)Nc2cccc(-c3csc(C)n3)c2)cc1OC [Compound 80] | –
5 to 50 | – | B (B (Fold Activation <250%)) | COc1ccc(C(=O)Nc2cccc(-c3csc(C)n3)c2)c(OC)c1 [Compound 81] | –
101 to 150 | – | – | COc1ccc(C(=O)Nc2cccc(-c3nnc(-c4ccccc4)o3)c2)c(OC)c1 [Compound 82] | –
5 to 50 | – | B (B (Fold Activation <250%)) | COc1cc(SC)ccc1C(=O)Nc1cccc(-c2nncn2C)c1 [Compound 83] | –
5 to 50 | – | B (B (Fold Activation <250%)) | COc1ccc(C(=O)Nc2cccc(-c3csc(-c4ccccc4)n3)c2)cc1OC [Compound 84] | –
> 150 | – | – | c1ccc2oc(N3CCCN(c4nc5ccccc5o4)CC3)nc2c1 [Compound 85] | –
> 150 | – | – | CN(C)c1ccc(NC(=O)Nc2cccc(-c3nc4ncccc4o3)n2)cc1 [Compound 87] | –
> 150 | – | – | COc1ccc(C(=O)N2CCCN(c3nc4ccccc4o3)CC2)c(OC)c1 [Compound 88] | –
< 5 | – | B (B (Fold Activation <250%)) | c1cc(Nc2nc3ccccc3s2)cc(-c2nc3ncccc3o2)c1 [Compound 95] | –
< 5 | – | B (B (Fold Activation <250%)) | COc1ccc(C(=O)Nc2ccccc2-c2nc3ncccc3o2)cc1OC [Compound 96] | –
> 150 | – | – | CC(C)(C)c1ccc(S(=O)(=O)Nc2ccccc2-c2nc3ncccc3o2)cc1 [Compound 98] | –
> 150 | – | – | O=C(NCc1ccc2c(c1)OCO2)c1cccc(-c2nc3ncccc3o2)c1 [Compound 103] | –
5 to 50 | – | B (B (Fold Activation <250%)) | COc1ccc(C(=O)Nc2cc(C(=O)N3CCNCC3)cc(-c3nc4ncccc4o3)c2)cc1OC [Compound 107, 3,4-dimethoxy-N-(3-(oxazolo[4,5-b]pyridin-2-yl)-5-(piperazine-1-carbonyl)phenyl)benzamide] | –

EC50 [1] [µM] | FOLD ACT. MS (fold activation of SIRT1, mass spectrometry assay) | FOLD ACT. MS [2] | Structure (SMILES) | EC50 [µM]
5 to 50 | – | B (B (Fold Activation <250%)) | O=C(Nc1cccc(-c2nc3ncccc3o2)c1)c1ccccc1N1CCOCC1 [Compound 109] | –
5 to 50 | – | B (B (Fold Activation <250%)) | CN(C)c1cccc(C(=O)Nc2cccc(-c3nc4cccnc4o3)c2)c1 [Compound 111] | –
5 to 50 | – | B (B (Fold Activation <250%)) | COc1ccc(C(=O)Nc2cccc(-c3nc4cccnc4o3)c2)cc1OC [Compound 112] | –
5 to 50 | – | B (B (Fold Activation <250%)) | CN(C)c1cccc(C(=O)Nc2cccc(-c3nc4ccncc4s3)c2)c1 [Compound 113] | –
< 5 | – | A (A (Fold activation >250%)) | COc1ccc(C(=O)Nc2cccc(-c3nc4ccncc4s3)c2)cc1OC [Compound 114] | –
5 to 50 | – | A (A (Fold activation >250%)) | COc1cc(C(=O)Nc2cccc(-c3nc4sccn4n3)c2)cc(OC)c1OC [Compound 118] | –
5 to 50 | – | B (B (Fold Activation <250%)) | COc1cccc(OC)c1C(=O)Nc1cccc(-c2nc3ccccc3o2)c1 [Compound 119] | –
5 to 50 | – | B (B (Fold Activation <250%)) | COc1ccc(C(=O)Nc2cccc(-c3nc4ccccc4s3)c2)c(OC)c1 [Compound 124] | –
– | – | B (B (Fold Activation <250%)) | COc1cc(C(=O)Nc2cccc(-c3nc4ccccc4c(=O)o3)c2)cc(OC)c1OC [Compound 125] | –
5 to 50 | – | B (B (Fold Activation <250%)) | COc1cccc(OC)c1C(=O)Nc1cccc(-c2nc3ccccc3[nH]2)c1 [Compound 126] | –
5 to 50 | – | B (B (Fold Activation <250%)) | COc1ccc(C(=O)Nc2cccc(-c3cn4ccc(C)cc4n3)c2)c(OC)c1 [Compound 128] | –
< 5 | – | A (A (Fold activation >250%)) | COc1cc(C(=O)Nc2cccc(-c3cn4ccc(C)cc4n3)c2)cc(OC)c1OC [Compound 129] | –
5 to 50 | – | B (B (Fold Activation <250%)) | COc1ccc(C(=O)Nc2cccc(-c3cn4ccc(C)cc4n3)c2)cc1 [Compound 130] | –
5 to 50 | – | A (A (Fold activation >250%)) | COc1cc(C(=O)Nc2cccc(-c3cn4cccc(C)c4n3)c2)cc(OC)c1OC [Compound 131] | –
5 to 50 | – | A (A (Fold activation >250%)) | COc1ccccc1C(=O)Nc1cccc(-c2cn3ccsc3n2)c1 [Compound 132] | –
< 5 | – | B (B (Fold Activation <250%)) | COC(=O)c1cc(NC(=O)c2cc(OC)c(OC)c(OC)c2)cc(-c2nc3ccncc3s2)c1 [Compound 133, methyl 3-(thiazolo[5,4-c]pyridin-2-yl)-5-(3,4,5-trimethoxybenzamido)benzoate] | –
< 5 | – | B (B (Fold Activation <250%)) | COc1cc(C(=O)Nc2cc(C(=O)O)cc(-c3nc4ccncc4s3)c2)cc(OC)c1OC [Compound 134, 3-(thiazolo[5,4-c]pyridin-2-yl)-5-(3,4,5-trimethoxybenzamido)benzoic acid] | –
> 150 | – | – | COC(=O)c1cc(NC(=O)c2ccc(OC)c(OC)c2)cc(-c2nc3ncccc3o2)c1 [Compound 136, Methyl 3-(3,4-dimethoxybenzamido)-5-(oxazolo[4,5-b]pyridin-2-yl)benzoate] | –
5 to 50 | – | B (B (Fold Activation <250%)) | CN(C)c1cccc(C(=O)Nc2cc(C(=O)N3CCNCC3)cc(-c3nc4ncccc4o3)c2)c1 [Compound 138] | –
5 to 50 | – | B (B (Fold Activation <250%)) | COc1ccc(C(=O)Nc2cc(C(=O)N3CCNCC3)cc(-c3nc4ncccc4o3)c2)c(OC)c1 [Compound 139] | –
< 5 | – | B (B (Fold Activation <250%)) | COc1cc(OC)cc(C(=O)Nc2ccccc2-c2nc3ccccc3[nH]2)c1 [Compound 141] | –
< 5 | – | A (A (Fold activation >250%)) | COc1ccc(C(=O)Nc2ccccc2-c2nc3ccccc3[nH]2)cc1OC [Compound 142] | –
> 150 | – | – | COc1ccc(S(=O)(=O)Nc2ccccc2-c2nc3ccccc3[nH]2)cc1OC [Compound 143] | –
> 150 | – | – | COc1cc(C(=O)Nc2sccc2-c2nc3ccccc3s2)cc(OC)c1OC [Compound 144] | –
< 5 | – | B (B (Fold Activation <250%)) | COc1ccc(C(=O)Nc2sccc2-c2nc3ccccc3s2)cc1OC [Compound 145] | –
< 5 | – | B (B (Fold Activation <250%)) | COc1cc(OC)cc(C(=O)Nc2sccc2-c2nc3ccccc3s2)c1 [Compound 146] | –
> 150 | – | – | S=C(Nc1ccc2c(c1)OCO2)Nc1cccc(-c2nc3ncccc3o2)n1 [Compound 147] | –

Structure (SMILES) | EC50 [1] [µM] | FOLD ACT. MS (fold activation of SIRT1, mass spectrometry assay) | FOLD ACT. MS [2] | EC50 [µM]
COc1ccc(C(=O)Nc2cc(-c3nc4ccccc4o3)ccn2)cc1OC [Compound 77] | – | – | B (B (Fold Activation <250%)) | 5 to 50
